Experimental findings from publication PMC5116089, “Sulfheme formation during homocysteine S-oxygenation by catalase in cancers and neurodegenerative diseases” (Nature Communications, 2016) are described below.

The target in series [1] is T1, Bovine liver catalase (Bos taurus, UniProt P00432).
T1 construct: Bovine liver catalase was also purchased from Sigma-Aldrich; purchased Sigma-Aldrich; host or cells: bovine liver
T1 sequence (P00432 2-527 limits assumed): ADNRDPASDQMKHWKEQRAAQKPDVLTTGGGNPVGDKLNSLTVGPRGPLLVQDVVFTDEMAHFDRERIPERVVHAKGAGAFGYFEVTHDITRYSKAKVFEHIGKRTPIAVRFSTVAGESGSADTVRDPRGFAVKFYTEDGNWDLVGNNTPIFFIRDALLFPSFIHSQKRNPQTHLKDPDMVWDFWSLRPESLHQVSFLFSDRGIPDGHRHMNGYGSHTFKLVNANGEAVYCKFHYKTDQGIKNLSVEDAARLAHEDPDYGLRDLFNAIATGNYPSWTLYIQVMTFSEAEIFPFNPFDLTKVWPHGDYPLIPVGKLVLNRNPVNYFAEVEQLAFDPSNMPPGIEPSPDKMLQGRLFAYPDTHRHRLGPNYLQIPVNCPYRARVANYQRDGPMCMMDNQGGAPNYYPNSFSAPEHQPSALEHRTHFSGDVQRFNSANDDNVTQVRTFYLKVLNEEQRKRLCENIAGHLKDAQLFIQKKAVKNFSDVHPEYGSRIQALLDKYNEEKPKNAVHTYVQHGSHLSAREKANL
In words: Comparative kinetic studies by ultraviolet-visible spectroscopy (compound II and Fe(II) sulfonium formation). The class given is biochemical. Particulars: CAT + 2 mM HCys, 1 mM DTPA, pH 7.4, with the additive named (dimedone 4 mM, BCN 0.1 mM, SOD 40 U). How it is done:
Ultraviolet–visible spectra were recorded on a Cary 300 Scan or an Uvikon 941 spectrophotometer equipped with a temperature equilibrating water bath (±1 °C). Spectral changes over time were recorded when CAT was incubated with L-HCys (0.2 or 2 mM), L-Cys (0.2, 2 or 9 mM) or GSH (1 or 30 mM) at 25 °C in a 1 ml quartz cuvette containing a solution of CAT (2.7–5.9 μM) in 50 mM KPi, pH 7.4±1 mM DTPA. Due to half-site reactivity of biological thiols with CAT, the data were recorded versus a blank containing half the concentrations of CAT used in the experiments, that is, a solution of 1.35–2.95 μM CAT in 50 mM KPi at pH 7.4±1 mM DTPA. Reactions were initiated by addition of the thiol-containing compounds. Comparative kinetic studies were performed by incubating CAT ([…] in the experiment, 1.35–1.5 μM in the blank) with 2 mM L-HCys in 50 mM KPi, pH 7.4, 1 mM DTPA with or without […], 5,5-dimethyl-1,3-cyclohexanedione (dimedone, 4 mM), BCN (0.1 mM) or SOD, 40 U). All the experiments were performed at least in duplicate.

Series [2] has as its target T1, Bovine liver catalase. In words: Time course of catalase inactivation by HCys (activity test). The class given is biochemical. Particulars: CAT + 2 mM HCys, 1 mM DTPA, pH 7.4, with the additive named (DMPO 100 mM, dimedone 4 mM, SOD 40 U); n=2±s.d. The protocol:
CAT activity was measured on an Uvikon 941 spectrophotometer equipped with a temperature controlled water bath (±1 °C) by following the disappearance of H2O2 at 240 nm over 30–120 s at 25 °C. Catalase activity was calculated based on the rate of decomposition of hydrogen peroxide, which is proportional to the reduction of the absorbance at 240 nm. Experiments were carried out in a 3 ml quartz cuvette containing 11.7 mM H2O2 in 50 mM KPi, pH 7.4±1 mM DTPA and the reaction was initiated by adding 0.3–0.6 pmoles of CAT. The effect of biological thiols on the activity of CAT under physiological conditions was determined from a solution of CAT (30–60 nM) preincubated at 25 °C for at least 120 min as a function thiol concentration (0–40 mM for HCys and Cys, 0–100 mM for GSH) in 50 mM KPi, pH 7.4, 1 mM DTPA. Control experiments (biological thiols alone) were also performed in parallel. In each case, 10 μl of the reaction mixture (biological thiols±CAT) was added to the cuvette containing the H2O2 solution to initiate the reaction. Similarly, the effect of biological thiols on the activity of CAT under pathological conditions was determined from a solution of CAT (30–60 nM) containing a 2.124±0.386 molar excess of iron that was preincubated with various concentrations of thiols (0–1 mM) for at least 120 min at 25 °C in 50 mM KP at pH 7.4. The relative half inhibitory concentration (IC50) values were obtained by plotting the relative activity of CAT (A, in per cent) as a function of the concentration of thiol-compounds (RSH) and by fitting the data with the following four parameter logistic equation: A=Amin+(Amax−Amin)/(1+([RSH]/IC50)^n), where Amax is the maximal activity of CAT (constrained at 100%), Amin is the minimum activity achieved at saturating concentration of RSH and n is the Hillslope that characterizes the slope of the curve at its midpoint. The inactivation rate (kinact, min^−1) was extracted from the time course of the inactivation of CAT bioactivity using a fixed concentration of HCys. Accordingly, a solution of CAT (3.5–5 μM) was incubated with 2 mM L-HCys in 50 mM KPi, pH 7.4, 1 mM DTPA. Aliquots (10 μl) were taken at intervals (0–480 min), diluted 1:50 in 50 mM KPi, pH 7.4, 1 mM DTPA and assayed for CAT activity as described above. […] The effect of NaSH on the consumption of H2O2 in cell lysates was determined from a solution of cell lysates (0.5–3 mg ml^−1) incubated on ice with various concentrations of NaSH (0–200 μM). […]

Series [3] has as its target T1, Bovine liver catalase. Briefly: Catalase activity (H2O2 disappearance at 240 nm) as a function of thiol concentration. The class given is biochemical. Particulars: DTPA 0-10 mM, CAT 40 nM pre-incubated 120 min, 25 °C. The protocol:
CAT activity was measured on an Uvikon 941 spectrophotometer equipped with a temperature controlled water bath (±1 °C) by following the disappearance of H2O2 at 240 nm over 30–120 s at 25 °C. Catalase activity was calculated based on the rate of decomposition of hydrogen peroxide, which is proportional to the reduction of the absorbance at 240 nm. Experiments were carried out in a 3 ml quartz cuvette containing 11.7 mM H2O2 in 50 mM KPi, pH 7.4±1 mM DTPA and the reaction was initiated by adding 0.3–0.6 pmoles of CAT. The effect of biological thiols on the activity of CAT under physiological conditions was determined from a solution of CAT (30–60 nM) preincubated at 25 °C for at least 120 min as a function thiol concentration (0–40 mM for HCys and Cys, 0–100 mM for GSH) in 50 mM KPi, pH 7.4, 1 mM DTPA. Control experiments (biological thiols alone) were also performed in parallel. In each case, 10 μl of the reaction mixture (biological thiols±CAT) was added to the cuvette containing the H2O2 solution to initiate the reaction. Similarly, the effect of biological thiols on the activity of CAT under pathological conditions was determined from a solution of CAT (30–60 nM) containing a 2.124±0.386 molar excess of iron that was preincubated with various concentrations of thiols (0–1 mM) for at least 120 min at 25 °C in 50 mM KP at pH 7.4. The relative half inhibitory concentration (IC50) values were obtained by plotting the relative activity of CAT (A, in per cent) as a function of the concentration of thiol-compounds (RSH) and by fitting the data with the following four parameter logistic equation: A=Amin+(Amax−Amin)/(1+([RSH]/IC50)^n), where Amax is the maximal activity of CAT (constrained at 100%), Amin is the minimum activity achieved at saturating concentration of RSH and n is the Hillslope that characterizes the slope of the curve at its midpoint. The inactivation rate (kinact, min^−1) was extracted from the time course of the inactivation of CAT bioactivity using a fixed concentration of HCys. Accordingly, a solution of CAT (3.5–5 μM) was incubated with 2 mM L-HCys in 50 mM KPi, pH 7.4, 1 mM DTPA. Aliquots (10 μl) were taken at intervals (0–480 min), diluted 1:50 in 50 mM KPi, pH 7.4, 1 mM DTPA and assayed for CAT activity as described above. Similar experiments were performed in the presence of DMPO, 5,5-dimethyl-1,3-cyclohexanedione (dimedone) or SOD at a final concentration of 100 mM, 4 mM or 40 U, respectively. kinact values were obtained by plotting the relative activity of CAT (A, in per cent) as a function of the incubation time and the data were fitted with an exponential decay function: A=A0+ΔA × e^−kinact × t, with A0 and ΔA (A0+ΔA=100%) the residual activity and the percentage of CAT inhibition when t→∞, respectively. The effect of NaSH on the consumption of H2O2 in cell lysates was determined from a solution of cell lysates (0.5–3 mg ml^−1) incubated on ice with various concentrations of NaSH (0–200 μM). The disappearance of H2O2 was then followed at 240 nm for 2–5 min at 25 °C after the addition of 20–25 μl of the reaction mixture in a 3 ml cuvette containing 11.7 mM H2O2 in 50 mM KPi, pH 7.4. The relative half inhibitory concentration (IC50) values for NaSH were obtained by plotting the relative rate of disappearance of H2O2 (ΔA240 nm/min) as a function of the concentration of NaSH and by fitting the data with an hyperbolic decay equation. All the experiments were performed at least in triplicate.

The subject of series [4] is M17 human neuroblastoma cells. Briefly: Relative specific activity of catalase (SpCAT) in cells treated with rotenone. The class given is cell-based. Particulars: BE2-M17 cells, 100 nM rotenone, 48 h. How it is done: Hek293T cells (n=2) were plated and transfected the following day with pcDNA (empty vector), Htt-N171-82Q (Htt) or Alpha-synuclein-A53T (α-Syn) plasmids (20 μg) with the calcium phosphate method. BE2-M17 cells (n=2) were plated and treated the following day with 100 nM rotenone dissolved in DMSO or DMSO alone. Hek293T and BE2-M17 cells were collected 48 h after transfection or treatment with DMSO±rotenone, respectively.
The relative specific activity (activity and quantity) of catalase in the cell lysates was determined using the kit ab118184 from Abcam (Cambridge, MA). The measurements were performed in duplicate as per the manufacturer's protocol. Briefly, catalase in cell lysates (0.1–0.2 mg cell lysates per assay) was immunocaptured within the wells of the microplate. An assay buffer, which contains H2O2 that reacts with a substrate to generate a luminescent product, was added to each well. […] Then, the quantity of catalase was measured by adding to each well an anti-catalase primary detector antibody. […] A blue colour (absorbance at 600 nm) developed in proportion to the amount of catalase bound. Luminescence and absorbance measurements were performed on an EnSpire Multilabel Reader 2300 (PerkinElmer). […] The protocol above was then followed to determine activity measurement and catalase quantification.

Series [5] has as its system crypt and surface epithelial cells. Briefly: Relative specific activity of catalase (SpCAT) in rodent model of DSS-induced colitis. The format is in vivo, mice. Particulars: DSS 3.5% in drinking water for 5 days, cells isolated day 7. How it is done: Seven-week-old male C57BL/6J mice (n=6; Envigo, Gannat, France) were acclimated for 1 week with free access to standard mouse chow and tap water. Each mouse was maintained in a cage under controlled conditions of temperature (23 °C), humidity (55±10%) and light (12:12 h light–dark cycle). Colitis was induced by the addition of DSS (3.5% (wt/vol), 36,000–50,000 MW, MP Biomedicals Illkirch-Graffenstaden, France) to the drinking water for 5 days (n=3). Healthy control animals (n=3) received fresh tap water, only. Two days after DSS arrest (day 7), mice were killed. […]
The relative specific activity (activity and quantity) of catalase in the cell lysates was determined using the kit ab118184 from Abcam (Cambridge, MA). […] Then, the quantity of catalase was measured by adding to each well an anti-catalase primary detector antibody. […] A blue colour (absorbance at 600 nm) developed in proportion to the amount of catalase bound. Luminescence and absorbance measurements were performed on an EnSpire Multilabel Reader 2300 (PerkinElmer). […] The protocol above was then followed to determine activity measurement and catalase quantification.

By kinact is commonly meant the maximal first-order rate at which the target is inactivated. Consider `CC1(C)CCC=[N+]1[O-]` [DMPO, 5,5-Dimethyl-1-Pyrroline-N-Oxide], for which the “Ultraviolet–visible spectroscopy kobs(6) (CAT–Fe(IV)=O formation)” value on Bovine liver catalase [1] was determined as 0.010 ± 0.002 min⁻¹. For the same compound, at Bovine liver catalase [2], the kinact was 0.00015 s⁻¹.
`O=C(O)CN(CCN(CC(=O)O)CC(=O)O)CCN(CC(=O)O)CC(=O)O` [DTPA, diethylene triamine pentaacetic acid]: the “effect on the activity of CAT” value at Bovine liver catalase [3] is listed as “does not interfere”.
`CC1(C)CC(=O)CC(=O)C1` [Dimedone, 5,5-dimethyl-1,3-cyclohexanedione]: on Bovine liver catalase [1], the “Ultraviolet–visible spectroscopy kobs(6) (CAT–Fe(IV)=O formation)” value was “^†0.019±0.003 min^−1”. For the same compound, the maximal inactivation rate constant (kinact) at Bovine liver catalase [2] came out at 0.0003 s⁻¹.
For the compound `C=C(C)[C@H]1Cc2c(ccc3c2O[C@@H]2COc4cc(OC)c(OC)cc4[C@@H]2C3=O)O1` [rotenone], the SpCAT versus control entry in series [4] is “inhibited”.
Take Dextran Sulfate Sodium [DSS]: the “SpCAT versus untreated mice” value in series [5] is reported as “not modified”.
Turning to bicyclo[6.1.0]nonyne [BCN], the “Ultraviolet–visible spectroscopy kobs(6) (CAT–Fe(IV)=O formation)” value at Bovine liver catalase [1] came to 0.018 ± 0.002 min⁻¹.
For the compound superoxide dismutase [SOD], in the series with Bovine liver catalase [1], the “Ultraviolet–visible spectroscopy kobs(6) (CAT–Fe(IV)=O formation)” value turned out to be 0.020 ± 0.002 min⁻¹. At Bovine liver catalase [2], the Activity test kinact turned out to be 0.018 ± 0.001 min⁻¹.
